Data published in patent US20030109525A1, “Crystalline thiazine oxazolidinones” (PHARMACIA & UPJOHN COMPANY, priority 2001, published 2003).

What was measured:
[1] = Bulk drug stability (storage at elevated temperature and humidity, HPLC assay); type: physicochemical
Procedure: As referred to in the present application, “stable” in bulk drug stability tests means that at least about 90% by weight, preferably at least about 95% by weight, and more preferably at least about 99% by weight of the bulk drug remains unchanged after storage under the indicated conditions for the indicated time.
Aliquots (about 0.3 mg) of bulk anhydrous crystalline N-({(5S)-3-[4-(1,1-dioxido-4-thiomorpholinyl)-3,5-difluorophenyl]-2-oxo-1,3-oxazolidin-5-yl}methyl)acetamide were weighed into 2-mL vials. The uncapped vials were placed either in a 75% relative humidity chamber (desiccator containing water saturated with sodium chloride) or in a dry chamber (desiccator containing Drierite). The chambers were placed in temperature controlled cabinets at 56° C. and 70° C. A single vial was removed from each desiccator at selected time points and was assayed using high pressure liquid chromatography (HPLC).

[2] = Hygroscopicity by dynamic moisture sorption gravimetry (DMSG); type: physicochemical; conditions: 25° C.
Procedure: X-ray diffraction (XRD) patterns were measured on a Scintag X2 diffractometer (Thermo ARL, Ecublens, Switzerland) equipped with a theta-theta goniometer. Single crystal x-ray diffraction was carried out on a Bruker SMART 6K CCD Area Detector diffractometer (Bruker AXS, Karlsruhe, Germany). Mass spectrometry (MS) (ionization type) was carried out on a Micromass Platform II spectrometer (Micromass, Manchester, United Kingdom). High pressure liquid chromatography (HPLC) was carried out on an Agilent 1100 Series chromatograph (Agilent Technologies, Palo Alto, Calif.). Melting points were determined using a TA Instruments 2920 differential scanning calorimeter (TA Instruments, New Castle, Del.) module with a Thermal Analyst 5000 controller. Hygroscopicity was assessed by dynamic moisture sorption gravimetry (DMSG) using a Controlled Atmosphere Microbalance (Pharmacia Corp., Kalamazoo, Mich.). All chemicals used are available from Aldrich Chemical Co., Milwaukee, Wis., unless otherwise specified. N-({(5S)-3-[3,5-difluoro-4-(4-thiomorpholinyl)phenyl]-2-oxo-1,3-oxazolidin-5-yl}methyl)acetamide was prepared as described in PCT International Publication Number WO 01/98297 (Barbachyn et al.).
DMSG isotherms were collected on the variable temperature controlled atmospheric microbalance. Approximately 10 mg samples were used in the balance. […] The mass was then measured every two minutes. […]

## CC(=O)NC[C@H]1CN(c2cc(F)c(N3CCS(=O)(=O)CC3)c(F)c2)C(=O)O1 [Anhydrous Crystalline Form, N-({(5S)-3-[4-(1,1-dioxido-4-thiomorpholinyl)-3,5-difluorophenyl]-2-oxo-1,3-oxazolidin-5-yl}methyl)acetamide]
[1]; 56° C., 75% relative humidity, Day 6
  Bulk drug stability, % of initial HPLC peak area: 100.1%
[1]; 56° C., 75% relative humidity, Day 13
  Bulk drug stability, % of initial HPLC peak area: 99.3%
[1]; 56° C., 75% relative humidity, Day 27
  Bulk drug stability, % of initial HPLC peak area: 99.9%
[1]; 56° C., 75% relative humidity, Day 61
  Bulk drug stability, % of initial HPLC peak area: 100.1%
[1]; 56° C., dessicator, Day 6
  Bulk drug stability, % of initial HPLC peak area: 100.1%
[1]; 56° C., dessicator, Day 13
  Bulk drug stability, % of initial HPLC peak area: 99.4%
[1]; 56° C., dessicator, Day 27
  Bulk drug stability, % of initial HPLC peak area: 100.0%
[1]; 56° C., dessicator, Day 61
  Bulk drug stability, % of initial HPLC peak area: 99.8%
[1]; 70° C., 75% relative humidity, Day 6
  Bulk drug stability, % of initial HPLC peak area: 100.1%
[1]; 70° C., 75% relative humidity, Day 13
  Bulk drug stability, % of initial HPLC peak area: 99.6%
[1]; 70° C., 75% relative humidity, Day 27
  Bulk drug stability, % of initial HPLC peak area: 99.9%
[1]; 70° C., 75% relative humidity, Day 61
  Bulk drug stability, % of initial HPLC peak area: 99.9%
[1]; 70° C., dessicator, Day 6
  Bulk drug stability, % of initial HPLC peak area: 100.1%
[1]; 70° C., dessicator, Day 13
  Bulk drug stability, % of initial HPLC peak area: 99.7%
[1]; 70° C., dessicator, Day 27
  Bulk drug stability, % of initial HPLC peak area: 100.0%
[1]; 70° C., dessicator, Day 61
  Bulk drug stability, % of initial HPLC peak area: 100.0%
[1]; aging tests
  Bulk drug stability in aging tests (in words): excellent bulk drug stability
[2]; dynamic moisture sorption scan 0 to 87% relative humidity
  Hygroscopicity: not hygroscopic
[2]; scan from 0 to 87% relative humidity, 3% humidity steps, equilibrium time not more than 180 minutes per step
  Moisture picked up during dynamic moisture sorption scan: approximately 0.2%
